Species: Rattus norvegicus
Assay: Open TG-GATES - Regimen: Single
Format: toxicity, organism-based, Sprague-Dawley
Parameters: regimen Single, gender Male, age 6 weeks
Conditions: in vivo, po, 0 mg/kg, route gavage, dose level Control; for APTT / Bas / Eos / Fbg / Hb / Ht / Lym / MCH / MCHC / MCV / Mono / Neu / PT / Plat / RBC / Ret / WBC: tissue Blood; for KIDNEY_L / KIDNEY_R / KIDNEY_TOTAL: tissue Kidney; for LIVER: tissue Liver; for A/G / ALP / ALT / AST / BUN / CRE / Ca / Cl / DBIL / GLC / IP / K / LDH / Na / PL / RALB / TBIL / TC / TG / TP / gamma-GTP: tissue Plasma

Compound: CC(=N)S [THIOACETAMIDE]
- TERMINAL_BW (3 h): 187.1 g
- APTT (3 h): 17.5 s
- Bas (3 h): 0%
- Eos (3 h): 0.6%
- Fbg (3 h): 224.8 mg/dL
- Hb (3 h): 13.3 g/dL
- Ht (3 h): 40%
- Lym (3 h): 77.6%
- MCH (3 h): 21.7 pg
- MCHC (3 h): 33.1%
- MCV (3 h): 65.4 fL
- Mono (3 h): 8.2%
- Neu (3 h): 13.4%
- PT (3 h): 12 s
- Plat (3 h): 101.8 x10_4/uL
- RBC (3 h): 611.6 x10_4/ul
- Ret (3 h): 8.4%
- WBC (3 h): 120.6 x10_2/uL
- KIDNEY_L (3 h): 0.9 g
- KIDNEY_R (3 h): 0.9 g
- KIDNEY_TOTAL (3 h): 1.7 g
- LIVER (3 h): 8.7 g
- A/G (3 h): 2.1
- ALP (3 h): 962.8 IU/L
- ALT (3 h): 34.4 IU/L
- AST (3 h): 69.2 IU/L
- BUN (3 h): 10.2 mg/dL
- CRE (3 h): 0.5 mg/dL
- Ca (3 h): 10.6 mg/dL
- Cl (3 h): 103.6 meq/L
- DBIL (3 h): 0 mg/dL
- GLC (3 h): 181.6 mg/dL
- IP (3 h): 9.1 mg/dL
- K (3 h): 4.8 meq/L
- LDH (3 h): 87.6 IU/L
- Na (3 h): 137.2 meq/L
- PL (3 h): 141.8 mg/dL
- RALB (3 h): 3.7 g/dL
- TBIL (3 h): 0.4 mg/dL
- TC (3 h): 79.8 mg/dL
- TG (3 h): 52 mg/dL
- TP (3 h): 5.5 g/dL
- gamma-GTP (3 h): 1.8 IU/L
- TERMINAL_BW (6 h): 185.6 g
- APTT (6 h): 17 s
- Bas (6 h): 0%
- Eos (6 h): 1%
- Fbg (6 h): 221.6 mg/dL
- Hb (6 h): 13.1 g/dL
- Ht (6 h): 39.7%
- Lym (6 h): 79%
- MCH (6 h): 21.6 pg
- MCHC (6 h): 33.1%
- MCV (6 h): 65.2 fL
- Mono (6 h): 7.8%
- Neu (6 h): 12.8%
- PT (6 h): 12.1 s
- Plat (6 h): 104 x10_4/uL
- RBC (6 h): 610.4 x10_4/ul
- Ret (6 h): 9.2%
- WBC (6 h): 126.6 x10_2/uL
- KIDNEY_L (6 h): 0.9 g
- KIDNEY_R (6 h): 0.9 g
- KIDNEY_TOTAL (6 h): 1.8 g
- LIVER (6 h): 8.3 g
- A/G (6 h): 2.4
- ALP (6 h): 828.6 IU/L
- ALT (6 h): 30.2 IU/L
- AST (6 h): 65.2 IU/L
- BUN (6 h): 10.8 mg/dL
- CRE (6 h): 0.6 mg/dL
- Ca (6 h): 10.2 mg/dL
- Cl (6 h): 103.8 meq/L
- DBIL (6 h): 0.012 mg/dL
- GLC (6 h): 182.4 mg/dL
- IP (6 h): 9.6 mg/dL
- K (6 h): 5.1 meq/L
- LDH (6 h): 72.2 IU/L
- Na (6 h): 136.6 meq/L
- PL (6 h): 140.6 mg/dL
- RALB (6 h): 3.8 g/dL
- TBIL (6 h): 0.4 mg/dL
- TC (6 h): 80.8 mg/dL
- TG (6 h): 61.8 mg/dL
- TP (6 h): 5.4 g/dL
- gamma-GTP (6 h): 1 IU/L
- TERMINAL_BW (9 h): 186.9 g
- APTT (9 h): 16.2 s
- Bas (9 h): 0%
- Eos (9 h): 1%
- Fbg (9 h): 226.8 mg/dL
- Hb (9 h): 13 g/dL
- Ht (9 h): 39.5%
- Lym (9 h): 75%
- MCH (9 h): 22 pg
- MCHC (9 h): 33%
- MCV (9 h): 66.7 fL
- Mono (9 h): 7.8%
- Neu (9 h): 16.2%
- PT (9 h): 12.4 s
- Plat (9 h): 107.7 x10_4/uL
- RBC (9 h): 592 x10_4/ul
- Ret (9 h): 9.4%
- WBC (9 h): 120.6 x10_2/uL
- KIDNEY_L (9 h): 0.9 g
- KIDNEY_R (9 h): 0.9 g
- KIDNEY_TOTAL (9 h): 1.8 g
- LIVER (9 h): 8 g
- A/G (9 h): 2
- ALP (9 h): 859.8 IU/L
- ALT (9 h): 32.2 IU/L
- AST (9 h): 62.8 IU/L
- BUN (9 h): 13 mg/dL
- CRE (9 h): 0.5 mg/dL
- Ca (9 h): 10.3 mg/dL
- Cl (9 h): 104.6 meq/L
- DBIL (9 h): 0.03 mg/dL
- GLC (9 h): 186.2 mg/dL
- IP (9 h): 9.8 mg/dL
- K (9 h): 4.8 meq/L
- LDH (9 h): 84.4 IU/L
- Na (9 h): 136.6 meq/L
- PL (9 h): 124 mg/dL
- RALB (9 h): 3.7 g/dL
- TBIL (9 h): 0.4 mg/dL
- TC (9 h): 71.8 mg/dL
- TG (9 h): 42 mg/dL
- TP (9 h): 5.6 g/dL
- gamma-GTP (9 h): 1.4 IU/L
- TERMINAL_BW (24 h): 198.1 g
- APTT (24 h): 17.2 s
- Bas (24 h): 0%
- Eos (24 h): 0.8%
- Fbg (24 h): 218.5 mg/dL
- Hb (24 h): 13.3 g/dL
- Ht (24 h): 40.6%
- Lym (24 h): 80.8%
- MCH (24 h): 21.1 pg
- MCHC (24 h): 32.9%
- MCV (24 h): 64.2 fL
- Mono (24 h): 6.2%
- Neu (24 h): 12.5%
- PT (24 h): 12.1 s
- Plat (24 h): 107.1 x10_4/uL
- RBC (24 h): 632.8 x10_4/ul
- Ret (24 h): 8.1%
- WBC (24 h): 135 x10_2/uL
- KIDNEY_L (24 h): 0.9 g
- KIDNEY_R (24 h): 0.9 g
- KIDNEY_TOTAL (24 h): 1.8 g
- LIVER (24 h): 9.7 g
- A/G (24 h): 2.2
- ALP (24 h): 883 IU/L
- ALT (24 h): 32.5 IU/L
- AST (24 h): 63.5 IU/L
- BUN (24 h): 17.2 mg/dL
- CRE (24 h): 0.5 mg/dL
- Ca (24 h): 10.4 mg/dL
- Cl (24 h): 102.8 meq/L
- DBIL (24 h): 0.0425 mg/dL
- GLC (24 h): 183.2 mg/dL
- IP (24 h): 7.2 mg/dL
- K (24 h): 5.4 meq/L
- LDH (24 h): 87.2 IU/L
- Na (24 h): 136 meq/L
- PL (24 h): 152.8 mg/dL
- RALB (24 h): 4 g/dL
- TBIL (24 h): 0.3 mg/dL
- TC (24 h): 77.2 mg/dL
- TG (24 h): 113.2 mg/dL
- TP (24 h): 5.8 g/dL
- gamma-GTP (24 h): 1.5 IU/L

Source: ChEMBL document CHEMBL3885861, “Open TG-GATES”
